Data from US20240374585A1, “EPITHELIAL SODIUM CHANNEL (ENAC) INHIBITOR CONJUGATES AND METHODS FOR USE THEREOF” (Lung Therapeutics, Inc., priority 2021, published 2024).
Where two headings read alike, the source gives them in different places. Where a SMILES comes first, the peptide text is derived from it. [ ]: non-standard residue; d: D form. The star is where a group is joined. X2 = NC(=NC(=O)c1nc(Cl)c(N)nc1N)NCCCCN1C(=O)CC(*)C1=O; Hyp = O=C(O)[C@@H]1C[C@@H](O)CN1; Ahx = NCCCCCC(=O)O

Target: T1, ENaC (Homo sapiens, UniProt P37088+P51168+P51170)
T1 construct: Primary NHBE cells were isolated from bronchi of normal healthy patients; endogenous in cells; host or cells: primary normal human bronchial epithelial (NHBE) cells, differentiated at air-liquid interface
T1 sequence (P37088 1-669): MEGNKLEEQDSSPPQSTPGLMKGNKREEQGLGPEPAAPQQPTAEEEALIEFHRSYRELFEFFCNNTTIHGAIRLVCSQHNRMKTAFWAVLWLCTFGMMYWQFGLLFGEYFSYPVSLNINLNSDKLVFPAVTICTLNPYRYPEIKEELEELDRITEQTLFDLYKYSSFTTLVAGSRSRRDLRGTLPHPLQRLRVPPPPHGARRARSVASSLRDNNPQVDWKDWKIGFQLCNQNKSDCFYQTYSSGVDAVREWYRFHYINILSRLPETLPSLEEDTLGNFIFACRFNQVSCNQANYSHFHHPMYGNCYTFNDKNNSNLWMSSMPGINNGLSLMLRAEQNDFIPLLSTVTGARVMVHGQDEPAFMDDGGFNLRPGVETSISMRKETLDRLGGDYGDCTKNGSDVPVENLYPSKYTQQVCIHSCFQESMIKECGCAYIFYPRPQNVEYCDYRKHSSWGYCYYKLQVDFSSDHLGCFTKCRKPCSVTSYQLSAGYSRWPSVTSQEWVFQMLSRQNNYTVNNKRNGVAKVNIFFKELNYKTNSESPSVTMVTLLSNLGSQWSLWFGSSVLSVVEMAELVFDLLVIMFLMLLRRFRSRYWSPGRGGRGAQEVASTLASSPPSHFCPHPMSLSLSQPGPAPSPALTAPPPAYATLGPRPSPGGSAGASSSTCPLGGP
T1 sequence (P51168 1-640): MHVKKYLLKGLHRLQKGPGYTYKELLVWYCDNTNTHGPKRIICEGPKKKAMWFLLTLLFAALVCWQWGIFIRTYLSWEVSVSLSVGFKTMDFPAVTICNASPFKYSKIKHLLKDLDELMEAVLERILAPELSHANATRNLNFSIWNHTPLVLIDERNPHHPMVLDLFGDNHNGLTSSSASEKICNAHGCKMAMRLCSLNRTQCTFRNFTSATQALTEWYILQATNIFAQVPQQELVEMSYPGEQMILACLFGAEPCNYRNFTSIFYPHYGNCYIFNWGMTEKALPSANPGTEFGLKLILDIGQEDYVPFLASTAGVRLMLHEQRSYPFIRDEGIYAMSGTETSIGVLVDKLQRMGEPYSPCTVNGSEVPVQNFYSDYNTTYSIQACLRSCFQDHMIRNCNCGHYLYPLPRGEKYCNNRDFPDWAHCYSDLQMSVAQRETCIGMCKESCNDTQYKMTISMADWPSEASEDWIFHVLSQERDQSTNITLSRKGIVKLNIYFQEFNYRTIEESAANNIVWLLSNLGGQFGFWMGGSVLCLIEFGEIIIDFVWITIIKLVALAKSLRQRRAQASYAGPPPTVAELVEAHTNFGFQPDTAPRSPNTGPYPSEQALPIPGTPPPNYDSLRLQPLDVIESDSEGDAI
T1 sequence (P51170 1-649): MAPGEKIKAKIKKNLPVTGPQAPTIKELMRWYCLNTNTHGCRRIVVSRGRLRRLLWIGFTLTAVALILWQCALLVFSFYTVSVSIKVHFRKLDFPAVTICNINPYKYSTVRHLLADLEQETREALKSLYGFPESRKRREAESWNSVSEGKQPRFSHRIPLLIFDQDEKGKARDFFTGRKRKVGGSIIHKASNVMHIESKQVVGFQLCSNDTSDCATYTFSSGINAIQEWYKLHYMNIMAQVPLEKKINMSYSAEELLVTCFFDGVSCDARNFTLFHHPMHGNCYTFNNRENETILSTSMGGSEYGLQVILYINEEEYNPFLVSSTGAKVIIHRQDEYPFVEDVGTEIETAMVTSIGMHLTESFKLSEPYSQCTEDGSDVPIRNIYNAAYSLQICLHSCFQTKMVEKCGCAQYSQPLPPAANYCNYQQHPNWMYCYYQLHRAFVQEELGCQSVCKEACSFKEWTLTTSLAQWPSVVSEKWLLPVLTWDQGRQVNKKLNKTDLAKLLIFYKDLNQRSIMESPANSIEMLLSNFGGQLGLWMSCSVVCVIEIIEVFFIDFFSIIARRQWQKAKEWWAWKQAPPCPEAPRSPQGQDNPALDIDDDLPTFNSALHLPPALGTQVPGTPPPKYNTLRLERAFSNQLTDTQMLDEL
Assay: ENaC inhibition in NHBE cell monolayers, Ussing epithelial voltage clamp (short circuit current)
Format: cell-based
Details: for fold more potent than amiloride (ENaC inhibition): relative to amiloride IC50
Method: The objective of this study was to measure the ability of the illustrative conjugates to modulate ion transport function of ENAC in normal human bronchial epithelial (NHBE) cell monolayers. Sodium transport function of ENAC expressed in NHBE monolayers was evaluated using an Ussing epithelial voltage clamp apparatus. See, Hirsh et al., J. Pharmacol. Exp. Ther. 2008; 325:77-88, hereby incorporated by reference in its entirety.
Primary NHBE cells were isolated from bronchi of normal healthy patients, expanded in Lonza media (BEGM™ BulletKit™), and plated on Snapwell™ filters to form an epithelium. Cells on Snapwell™ inserts were grown for at least 21 days in Vertex Differentiation media and exposed to an air-liquid interface to promote differentiation. At least one day before the assay, mucous overlaying the apical surface was removed from the inserts by incubating the apical surface for about 30 minutes with ≥200 μL of differentiation media followed by aspiration of the mucous film and media.
The NHBE cell monolayers grown on Snapwell™ filter inserts were transferred to Physiologic Instruments Ussing recording chambers (Physiologic Instruments, Inc., San Diego, CA) and superfused with HB-PS. One or more 6-channel or 8-channel Physiologic Instruments VCC MC6 or VCC MC8 epithelial voltage clamps were used in combination to record short circuit current (ISC) from up to 24 inserts simultaneously. Air was used to operate the bubble lifts to rapidly circulate solutions in each Ussing chamber half and to aerate the monolayers.
Inserts were voltage clamped at 0 m V to record the ISC. Bumetanide (20 μM) was added to the basolateral side of all inserts. Test conjugates prepared as DMSO (Sigma-Aldrich) stocks were added cumulatively and sequentially to the apical Ussing chamber halves with at least 3 minutes between each addition.
Time and volume matched additions of DMSO to the basolateral side of the test conjugate treated inserts and both sides of the vehicle treated inserts was made to maintain osmotic balance across the epithelia. Transepithelial resistance was monitored with small voltage steps. The assay was performed at 35±2° C.
ENaC current at each test conjugate concentration was calculated as the peak current change produced by each test conjugate treated insert minus the mean current change produced by the corresponding DMSO additions to time-matched vehicle controls inserts. Cumulative difference data was fit to a Hill equation of the form: […]
Where IEnaC is the ISC peak difference current measured at each test conjugate concentration [Test].

[1] = NHBE cell monolayers, Ussing chamber, apical addition, 35±2° C.
[2] = NHBE cell monolayers, Ussing chamber, apical addition, 35±2° C., read-out: IC50 for the ENaC inhibition

Compound	IC50 [2]	also measured
Ac-K-(Ahx)-ASHLRKLRKRLL-NH2 (Ac-K[Ahx]ASHLRKLRKRLL-NH2) [Peptide only Control 2, Peptide only control, reference compound]	–	IC50 for the ENaC inhibition [1]: Did not inhibit
Ac-K-(Ahx)-VSKRR-NH2 (Ac-K[Ahx]VSKRR-NH2) [Peptide only Control 3, Peptide only control, reference compound]	–	IC50 for the ENaC inhibition [1]: Did not inhibit
CC(=O)N[C@@H](CCCCn1cc(CCCCCNC(N)=NC(=O)c2nc(Cl)c(N)nc2N)nn1)C(=O)NCCCCCC(=O)N[C@@H](C)C(=O)N[C@@H](CO)C(=O)N[C@@H](Cc1c[nH]cn1)C(=O)N[C@@H](CC(C)C)C(=O)N[C@@H](CCCNC(=N)N)C(=O)N[C@@H](CCCCN)C(=O)N[C@@H](CC(C)C)C(=O)N[C@@H](CCCNC(=N)N)C(=O)N[C@@H](CCCCN)C(=O)N[C@@H](CCCNC(=N)N)C(=O)N[C@@H](CC(C)C)C(=O)N[C@@H](CC(C)C)C(N)=O [Conjugate 5]	–	IC50: 30 nM; fold more potent than amiloride (ENaC inhibition): about 10 fold
CC(=O)N[C@@H](CCCCNC(N)=NC(=O)c1nc(Cl)c(N)nc1N)C(=O)NCCCCCC(=O)N[C@H](C(=O)N[C@@H](CO)C(=O)N[C@@H](CCCCN)C(=O)N[C@@H](CCCNC(=N)N)C(=O)N[C@@H](CCCNC(=N)N)C(N)=O)C(C)C [Conjugate 3, Ac-(AmilAC)K-(Ahx)-VSKRR-NH2] (HELM PEPTIDE1{[ac].[NC(=NC(=O)c1nc(Cl)c(N)nc1N)NCCCC[C@H](N[*:1])C(=O)[*:2]].[O=C(CCCCCN[*:1])[*:2]].V.S.K.R.R.[am]}$$$$V2.0)	50 nM	fold more potent than amiloride (ENaC inhibition): about 10 fold
CC[C@H](C)[C@H](NC(=O)[C@H](Cc1ccc(O)cc1)NC(=O)[C@@H]1C[C@@H](O)CN1C(=O)[C@H](C)NC(=O)[C@H](CC(C)C)NC(=O)[C@H](C)NC(=O)CCCCCNC(=O)[C@H](CCCCNC(N)=NC(=O)c1nc(Cl)c(N)nc1N)NC(C)=O)C(N)=O [Conjugate 1, Ac-(AmilAC)K-(Ahx)-ALA(Hyp)YI-NH2] (HELM PEPTIDE1{[ac].[NC(=NC(=O)c1nc(Cl)c(N)nc1N)NCCCC[C@H](N[*:1])C(=O)[*:2]].[O=C(CCCCCN[*:1])[*:2]].A.L.A.[Hyp].Y.I.[am]}$$$$V2.0)	290 nM	–
CC[C@H](C)[C@H](NC(=O)[C@H](Cc1ccc(O)cc1)NC(=O)[C@@H]1C[C@@H](O)CN1C(=O)[C@H](C)NC(=O)[C@H](CC(C)C)NC(=O)[C@H](C)NC(=O)CCCCCNC(=O)[C@H](Cc1cn(CCCCNC(N)=NC(=O)c2nc(Cl)c(N)nc2N)nn1)NC(C)=O)C(N)=O [Conjugate 7, Ac-(AmilCC2-Pgy)-Ahx-ALA(Hyp)YI-NH2]	790 nM	–
Ac-K-(Ahx)-ALA(Hyp)YI-NH2 (Ac-K[Ahx]ALA[Hyp]YI-NH2) [Peptide only Control 1, Peptide only control, reference compound]	–	IC50 for the ENaC inhibition [1]: Did not inhibit
CC(=O)N[C@@H](CCCCn1cc(CCCCCNC(N)=NC(=O)c2nc(Cl)c(N)nc2N)nn1)C(=O)NCCCCCC(=O)N[C@H](C(=O)N[C@@H](CO)C(=O)N[C@@H](CCCCN)C(=O)N[C@@H](CCCNC(=N)N)C(=O)N[C@@H](CCCNC(=N)N)C(N)=O)C(C)C [Conjugate 6, Ac-(AmilCC1-AzK)-Ahx-VSKRR-NH2]	90 nM	–
CC(=O)N[C@@H](CCCCNC(N)=NC(=O)c1nc(Cl)c(N)nc1N)C(=O)NCCCCCC(=O)N[C@@H](C)C(=O)N[C@@H](CO)C(=O)N[C@@H](Cc1c[nH]cn1)C(=O)N[C@@H](CC(C)C)C(=O)N[C@@H](CCCNC(=N)N)C(=O)N[C@@H](CCCCN)C(=O)N[C@@H](CC(C)C)C(=O)N[C@@H](CCCNC(=N)N)C(=O)N[C@@H](CCCCN)C(=O)N[C@@H](CCCNC(=N)N)C(=O)N[C@@H](CC(C)C)C(=O)N[C@@H](CC(C)C)C(N)=O [Conjugate 2] (HELM PEPTIDE1{[ac].[NC(=NC(=O)c1nc(Cl)c(N)nc1N)NCCCC[C@H](N[*:1])C(=O)[*:2]].[O=C(CCCCCN[*:1])[*:2]].A.S.H.L.R.K.L.R.K.R.L.L.[am]}$$$$V2.0)	80 nM	–
CC[C@H](C)[C@H](NC(=O)[C@H](Cc1ccc(O)cc1)NC(=O)[C@@H]1C[C@@H](O)CN1C(=O)[C@H](C)NC(=O)[C@H](CC(C)C)NC(=O)[C@H](C)NC(=O)CCCCCNC(=O)[C@H](CCCCn1cc(CCCCCNC(N)=NC(=O)c2nc(Cl)c(N)nc2N)nn1)NC(C)=O)C(N)=O [Conjugate 4, Ac-(AmilCC1-AzK)-Ahx-ALA(Hyp)YI-NH2]	240 nM	–
CC(=O)N[C@@H](CSC1CC(=O)N(CCCCNC(N)=NC(=O)c2nc(Cl)c(N)nc2N)C1=O)C(=O)NCCCCCC(=O)N[C@H](C(=O)N[C@@H](CO)C(=O)N[C@@H](CCCCN)C(=O)N[C@@H](CCCNC(=N)N)C(=O)N[C@@H](CCCNC(=N)N)C(N)=O)C(C)C (some centres unmarked) [Conjugate 12, Ac-(AmilTC-C)-Ahx-VSKRR-NH2] (Ac-C(X2)[Ahx]VSKRR-NH2)	80 nM	–
CC(=O)N[C@@H](CSC1CC(=O)N(CCCCNC(N)=NC(=O)c2nc(Cl)c(N)nc2N)C1=O)C(=O)NCCCCCC(=O)N[C@@H](C)C(=O)N[C@@H](CO)C(=O)N[C@@H](Cc1c[nH]cn1)C(=O)N[C@@H](CC(C)C)C(=O)N[C@@H](CCCNC(=N)N)C(=O)N[C@@H](CCCCN)C(=O)N[C@@H](CC(C)C)C(=O)N[C@@H](CCCNC(=N)N)C(=O)N[C@@H](CCCCN)C(=O)N[C@@H](CCCNC(=N)N)C(=O)N[C@@H](CC(C)C)C(=O)N[C@@H](CC(C)C)C(N)=O (some centres unmarked) [Conjugate 11] (Ac-C(X2)[Ahx]ASHLRKLRKRLL-NH2)	–	IC50: 70 nM
